One series has as its system A549. In words: Antiproliferative activity against human A549 cells after 48 hrs by MTT assay. In kind it is functional, cell-based. The following applies: A549, 48 h. On the technique in general: Tetrazolium assays rely on reduction of a dye to a coloured formazan, in cell work by metabolically active cells.
The next series has as its system HCT-116. In words: Antiproliferative activity against human HCT116 cells after 48 hrs by MTT assay. The note with it: HCT-116, 48 h. The class given is functional, cell-based.
For a further series, the system named is HepG2. In words: Antiproliferative activity against human HepG2 cells after 48 hrs by MTT assay. In kind it is functional, cell-based. The following applies: HepG2, 48 h.
Another series concerns MCF7. In words: Antiproliferative activity against human MCF7 cells after 48 hrs by MTT assay. In kind it is functional, cell-based. The following applies: MCF7, 48 h.
The nature of series [1]: Antitumor activity against mouse H22-H8D8 cells implanted in ICR mouse assessed as tumor growth inhibition at 20 mg/kg, iv relative to control. The following applies: read-out: TGI. The class given is functional.
The next series concerns Mus musculus. In words: Toxicity in ICR mouse implanted with mouse H22-H8D8 cells assessed as body weight at 20 mg/kg, iv (reference value: 29.89 to 33.78 g). The class given is organism-based. The note with it: in vivo.
Series [2] addresses T1, DNA topoisomerase 1 (Homo sapiens) (UniProt P11387).
T1 sequence (whole entry): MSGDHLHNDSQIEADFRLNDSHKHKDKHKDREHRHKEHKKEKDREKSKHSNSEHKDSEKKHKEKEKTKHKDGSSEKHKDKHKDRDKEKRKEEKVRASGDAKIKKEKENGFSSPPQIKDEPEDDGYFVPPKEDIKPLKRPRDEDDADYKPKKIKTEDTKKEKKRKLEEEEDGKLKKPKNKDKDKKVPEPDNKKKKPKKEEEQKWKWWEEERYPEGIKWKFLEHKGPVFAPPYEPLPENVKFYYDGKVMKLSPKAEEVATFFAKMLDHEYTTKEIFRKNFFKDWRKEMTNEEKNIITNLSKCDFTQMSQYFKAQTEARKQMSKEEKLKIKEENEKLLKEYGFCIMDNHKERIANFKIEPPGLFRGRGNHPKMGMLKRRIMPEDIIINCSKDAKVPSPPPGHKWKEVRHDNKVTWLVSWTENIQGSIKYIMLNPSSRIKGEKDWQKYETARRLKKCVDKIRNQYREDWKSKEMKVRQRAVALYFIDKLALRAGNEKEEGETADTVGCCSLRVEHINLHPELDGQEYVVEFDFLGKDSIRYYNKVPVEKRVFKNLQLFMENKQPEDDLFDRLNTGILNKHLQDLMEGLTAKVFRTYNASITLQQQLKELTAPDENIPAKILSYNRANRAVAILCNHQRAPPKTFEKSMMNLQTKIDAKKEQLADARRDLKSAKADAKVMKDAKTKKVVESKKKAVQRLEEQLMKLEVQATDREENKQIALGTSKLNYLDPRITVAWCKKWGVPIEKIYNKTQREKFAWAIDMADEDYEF
In words: Inhibition of DNA topoisomerase-1 (unknown origin) assessed as reduction in enzyme-catalyzed relaxation of pBR322 DNA substrate at 20 uM after 30 mins by ethidium bromide staining based electrophoresis.

For series [3], the target named is DNA topoisomerase 2-alpha (Homo sapiens) (UniProt P11388). Kind of series: Inhibition of DNA topoisomerase-2alpha (unknown origin) assessed as reduction in enzyme-catalyzed relaxation of pBR322 DNA substrate at 20 uM after 30 mins by ethidium bromide staining based electrophoresis.
Chain of DNA topoisomerase 2-alpha (Homo sapiens) (P11388 whole entry): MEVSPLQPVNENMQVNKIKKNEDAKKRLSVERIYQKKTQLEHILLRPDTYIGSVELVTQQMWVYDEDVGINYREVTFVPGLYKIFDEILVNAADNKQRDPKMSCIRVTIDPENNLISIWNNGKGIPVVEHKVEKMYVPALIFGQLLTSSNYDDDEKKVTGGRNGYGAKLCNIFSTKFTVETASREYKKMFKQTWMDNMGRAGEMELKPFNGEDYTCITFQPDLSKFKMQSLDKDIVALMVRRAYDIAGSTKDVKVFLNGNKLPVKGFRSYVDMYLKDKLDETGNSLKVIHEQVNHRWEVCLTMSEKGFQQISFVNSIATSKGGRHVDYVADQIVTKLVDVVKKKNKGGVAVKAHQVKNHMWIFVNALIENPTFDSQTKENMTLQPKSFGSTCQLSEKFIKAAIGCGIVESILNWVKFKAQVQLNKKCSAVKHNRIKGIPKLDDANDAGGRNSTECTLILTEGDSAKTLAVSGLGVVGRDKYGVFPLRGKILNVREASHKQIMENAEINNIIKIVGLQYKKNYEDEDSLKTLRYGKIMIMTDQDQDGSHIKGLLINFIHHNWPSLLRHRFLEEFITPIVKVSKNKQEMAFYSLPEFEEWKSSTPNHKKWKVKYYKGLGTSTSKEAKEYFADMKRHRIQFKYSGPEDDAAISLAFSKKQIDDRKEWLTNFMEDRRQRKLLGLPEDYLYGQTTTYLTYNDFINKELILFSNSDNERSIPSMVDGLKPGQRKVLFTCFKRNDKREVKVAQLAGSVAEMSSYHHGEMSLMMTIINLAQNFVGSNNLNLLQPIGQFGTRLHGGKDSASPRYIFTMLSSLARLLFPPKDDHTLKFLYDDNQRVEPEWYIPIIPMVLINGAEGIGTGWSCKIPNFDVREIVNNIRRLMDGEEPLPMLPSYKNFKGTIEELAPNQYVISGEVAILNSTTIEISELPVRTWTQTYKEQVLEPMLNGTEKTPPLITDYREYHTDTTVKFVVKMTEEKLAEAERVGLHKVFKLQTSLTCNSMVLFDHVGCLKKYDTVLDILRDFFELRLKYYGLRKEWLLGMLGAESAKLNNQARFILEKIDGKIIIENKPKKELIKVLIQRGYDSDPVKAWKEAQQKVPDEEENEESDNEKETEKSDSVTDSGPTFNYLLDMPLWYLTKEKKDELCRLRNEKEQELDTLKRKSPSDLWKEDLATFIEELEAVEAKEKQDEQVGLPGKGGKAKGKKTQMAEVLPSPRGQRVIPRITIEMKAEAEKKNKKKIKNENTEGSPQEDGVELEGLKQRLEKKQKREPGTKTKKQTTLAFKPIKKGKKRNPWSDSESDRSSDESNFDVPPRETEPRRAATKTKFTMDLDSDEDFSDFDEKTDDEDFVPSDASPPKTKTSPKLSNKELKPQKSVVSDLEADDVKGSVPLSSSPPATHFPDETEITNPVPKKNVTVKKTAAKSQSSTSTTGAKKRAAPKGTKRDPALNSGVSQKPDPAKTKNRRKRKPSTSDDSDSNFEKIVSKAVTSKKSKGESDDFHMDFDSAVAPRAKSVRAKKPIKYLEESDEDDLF

Results on 34 compounds are retold here after ChEMBL document CHEMBL3992500, “Design, facile synthesis and biological evaluations of novel pyrano[3,2-a]phenazine hybrid molecules as antitumor agents” (Eur J Med Chem, 2017).

Each structure is given as a SMILES string. Activity calls are given as the source filed them. No cut-off for these calls is given here. Where only a bound is given, the exact number is not on record here.

The IC50 is the concentration that inhibits the measured activity by half. Low readings indicate greater potency, high ones weaker potency.

As for `CCOC(=O)C1=C(N)Oc2c(N)cc3nc4ccccc4nc3c2C1c1ccc(OC)c(F)c1` (configuration not stated), the IC50 in the series on A549 was 24.8 µM; with HCT-116, 20.5 µM; in the series on HepG2 it was 8.5 µM; in the series on MCF7, > 50 µM.
In the same order, the values of `CCOC(=O)C1=C(N)Oc2c(N)cc3nc4ccccc4nc3c2C1c1ccc(Br)cc1` (configuration not stated) are 17.3 µM, 20.2 µM, 10.6 µM and > 50 µM.
In the same order, the values of `CCOC(=O)C1=C(N)Oc2c(N)cc3nc4ccccc4nc3c2C1c1cc(OC)c(Br)c(OC)c1` (configuration not stated) are 13.5 µM, 20.1 µM, 10.1 µM and > 50 µM.
In the same order, the values of `CCOC(=O)C1=C(N)Oc2c(N)cc3nc4ccccc4nc3c2C1c1cccc(Br)c1` (configuration not stated) are 13.4 µM, 10.8 µM, > 50 µM and > 50 µM.
For the compound `CCc1ccc(C2C(C#N)=C(N)Oc3c(N)cc4nc5ccccc5nc4c32)cc1` (configuration not stated), the IC50 in the series on A549 was 23.4 µM; with HCT-116, 5.5 µM; in the series on HepG2 it was 15.5 µM; with MCF7 it was 19.1 µM.
In the same order, the values of `CC(C)c1ccc(C2C(C#N)=C(N)Oc3c(N)cc4nc5ccccc5nc4c32)cc1` (configuration not stated) are 14.5 µM, 20.6 µM, 16.2 µM and > 50 µM.
Regarding `COc1cc(C2C(C#N)=C(N)Oc3c(N)cc4nc5ccccc5nc4c32)cc(Br)c1OC` (configuration not stated), the IC50 with A549 amounted to 5.3 µM; in the series with HCT-116, 12.1 µM; in the series with HepG2, 6.2 µM; with MCF7, 25.6 µM.
In the same order, the values of `N#CC1=C(N)Oc2c(N)cc3nc4ccccc4nc3c2C1c1ccc([N+](=O)[O-])cc1` (configuration not stated) are 15.9 µM, 14.5 µM, 18.1 µM and > 50 µM.
In the same order, the values of `CCOC(=O)C1=C(N)Oc2c(N)cc3nc4ccccc4nc3c2C1c1ccc([N+](=O)[O-])cc1` (configuration not stated) are 18.8 µM, 16.4 µM, 6.7 µM and 13.2 µM.
For `COc1ccc(Br)cc1C1C(C#N)=C(N)Oc2c(N)cc3nc4ccccc4nc3c21` (configuration not stated) the same measures were 14.1 µM, 30.1 µM, 11.7 µM and > 50 µM.
On to `COc1ccc(C2C(C#N)=C(N)Oc3c(N)cc4nc5ccccc5nc4c32)c(OC)c1OC` (configuration not stated), for which the IC50 is 20.3 µM with A549, 47.1 µM with HCT-116, 15.3 µM in the series with HepG2 and 28.1 µM in the series with MCF7.
In the same order, the values of `CCOC(=O)C1=C(N)Oc2c(N)cc3nc4ccccc4nc3c2C1c1cc(Br)c(OC)c(OC)c1` (configuration not stated) are 10.3 µM, 9.7 µM, 10.3 µM and > 50 µM.
With `CCOC(=O)C1=C(N)Oc2c(N)cc3nc4ccccc4nc3c2C1c1ccccc1[N+](=O)[O-]` (configuration not stated), the IC50 in the series with A549 is 14.5 µM; in the series with HCT-116, 18.2 µM; in the series with HepG2 it was 7.4 µM; in the series with MCF7 it was 18.6 µM.
With `N#CC1=C(N)Oc2c(N)cc3nc4ccccc4nc3c2C1c1cccc(Cl)c1` (configuration not stated), the IC50 in the series with A549 turned out to be 21.4 µM; in the series on HCT-116, 15.1 µM; in the series on HepG2, 9.4 µM; in the series with MCF7 it was 39.1 µM.
For `O=P1(N(CCCl)CCCl)NCCCO1` (configuration not stated) [CYCLOPHOSPHAMIDE ANHYDROUS], in series [1], the inhibition in vivo at 20 mg/kg was 66.7 to 67.8%. The Activity in the series on Mus musculus is 34.3 to 35.6 g.
Consider `CCOC(=O)C1=C(N)Oc2c(N)cc3nc4ccccc4nc3c2C1c1ccc(Cl)cc1Cl` (configuration not stated), for which the IC50 in the series with A549 is 19.1 µM; in the series on HCT-116, 12.1 µM; with HepG2 it was 11.5 µM; in the series with MCF7, > 50 µM.
Consider `CCOC(=O)C1=C(N)Oc2c(N)cc3nc4ccccc4nc3c2C1c1ccccc1F` (configuration not stated), for which the IC50 came out at 24.5 µM with A549, 35.6 µM with HCT-116, 6.3 µM in the series on HepG2 and 18.7 µM in the series with MCF7.
For `CCOC(=O)C1=C(N)Oc2c(N)cc3nc4ccccc4nc3c2C1c1ccc(Cl)c(Cl)c1` (configuration not stated), the IC50 in the series on A549 was 17.1 µM; in the series on HCT-116, > 50 µM; in the series on HepG2, 24.2 µM; with MCF7, 8.4 µM.
For the compound `CCOC(=O)C1=C(N)Oc2c(N)cc3nc4ccccc4nc3c2C1c1ccc(Cl)cc1` (configuration not stated), the IC50 turned out to be 5.5 µM in the series on A549, 8.2 µM in the series with HCT-116, 7.2 µM in the series on HepG2 and 10 µM with MCF7.
Take `CCOC(=O)C1=C(N)Oc2c(N)cc3nc4ccccc4nc3c2C1c1ccc(CC)cc1` (configuration not stated): the IC50 is 39.1 µM in the series with A549, 15.1 µM in the series on HCT-116, 30.4 µM in the series with HepG2 and > 50 µM with MCF7.
As for `N#CC1=C(N)Oc2c(N)cc3nc4ccccc4nc3c2C1c1c(Cl)cccc1Cl` (configuration not stated), the IC50 in the series on A549 is 12 µM; with HCT-116, 10.2 µM; with HepG2, > 50 µM; in the series with MCF7, 40.2 µM.
On to `CCOC(=O)C1=C(N)Oc2c(N)cc3nc4ccccc4nc3c2C1c1cc(Br)ccc1OC` (configuration not stated), for which the IC50 in the series on A549 is > 50 µM; in the series on HCT-116, > 50 µM; in the series on HepG2, 13.9 µM; in the series with MCF7 it was > 50 µM.
`CCOC(=O)C1=C(N)Oc2c(N)cc3nc4ccccc4nc3c2C1c1c(Cl)cccc1Cl` (configuration not stated): the IC50 in the series on A549 is > 50 µM; in the series with HCT-116, 12.4 µM; in the series with HepG2, 40.1 µM; in the series with MCF7, > 50 µM.
On to `CC[C@@]1(O)C(=O)OCc2c1cc1n(c2=O)Cc2cc3cc(O)ccc3nc2-1` [HYDROXYCAMPTOTHECIN], for which the IC50 in the series with A549 is 0.8 µM; in the series with HCT-116, 3.5 µM; with HepG2, 10.1 µM; in the series on MCF7, 2.4 µM. The inhibition entry in series [2] is “Active”.
In the case of `COc1ccc(C2C(C#N)=C(N)Oc3c(N)cc4nc5ccccc5nc4c32)cc1F` (configuration not stated), the IC50 with A549 was 11.3 µM; with HCT-116, 20.4 µM; in the series on HepG2 it was 7.8 µM; in the series on MCF7, > 50 µM.
Take `COc1cc([C@@H]2c3cc4c(cc3[C@@H](O[C@@H]3O[C@@H]5CO[C@@H](C)O[C@H]5[C@H](O)[C@H]3O)[C@H]3COC(=O)[C@H]23)OCO4)cc(OC)c1O`: the inhibition result in series [3] was “Active”.
`N#CC1=C(N)Oc2c(N)cc3nc4ccccc4nc3c2C1c1cccc([N+](=O)[O-])c1` (configuration not stated): the IC50 in the series on A549 is 26.6 µM; with HCT-116, > 50 µM; in the series on HepG2, > 50 µM; in the series with MCF7, 20.3 µM.
With `CCOC(=O)C1=C(N)Oc2c(N)cc3nc4ccccc4nc3c2C1c1cccc([N+](=O)[O-])c1` (configuration not stated), the IC50 was > 50 µM in the series on A549, > 50 µM in the series on HCT-116, 7.3 µM in the series on HepG2 and 20.2 µM with MCF7.
Consider `COc1cc(OC)c(C2C(C#N)=C(N)Oc3c(N)cc4nc5ccccc5nc4c32)cc1OC` (configuration not stated), for which the IC50 in the series on A549 is 44.6 µM; in the series on HCT-116 it was 30.6 µM; with HepG2 it was 23.1 µM; in the series with MCF7 it was > 50 µM.
For `COc1cc(C2C(C#N)=C(N)Oc3c(N)cc4nc5ccccc5nc4c32)cc(OC)c1O` (configuration not stated) the same measures were > 50 µM, 7.6 µM, > 50 µM and 28.8 µM.
For `COc1cc(C2C(C#N)=C(N)Oc3c(N)cc4nc5ccccc5nc4c32)cc(OC)c1Br` (configuration not stated) the same measures were 24.2 µM, 18.2 µM, 12.4 µM and > 50 µM.
Turning to `COc1ccc(C2C(C#N)=C(N)Oc3c(N)cc4nc5ccccc5nc4c32)cc1OC` (configuration not stated), the IC50 with A549, in the series with HCT-116, with HepG2 and in the series on MCF7 was > 50 µM throughout.
Consider `N#CC1=C(N)Oc2c(N)cc3nc4ccccc4nc3c2C1c1ccc(Br)cc1` (configuration not stated), for which the IC50 is 11.2 µM with A549, 6.3 µM in the series with HCT-116, 10.3 µM in the series on HepG2 and > 50 µM in the series with MCF7.
For `N#CC1=C(N)Oc2c(N)cc3nc4ccccc4nc3c2C1c1ccccc1Cl` (configuration not stated) the same measures were 6.3 µM, 7.4 µM, 8.4 µM and 25.1 µM.
